Results published in the NIST ThermoML archive (doi:10.1016/j.jct.2018.09.037).
Values joined by “and” are separate entries in the source; they are usually repeats but may differ in a detail not shown here. Equal values may be shown once.

Tests used:
[1] = 100 kPa, Liquid, Electromagnetic levitation / mass taken directly, volume taken from sample image
[2] = xn = mol fraction of the nth substance listed; conditions: 100 kPa, Liquid, Electromagnetic levitation / mass taken directly, volume taken from sample image

[Pd] [palladium]
[1]
Conditions | mass density [kg/m3]
1790 K | 10670
1795 K | 10672
1796 K | 10652
1802 K | 10686
1809 K | 10670
1820 K | 10677
1831 K | 10627
1843 K | 10654
1856 K | 10601
1878 K | 10558
1889 K | 10592
1890 K | 10575
1917 K | 10529
1935 K | 10478
1951 K | 10465

[Cu] [copper]
[1]
Conditions | mass density [kg/m3]
1371 K | 7884
1385 K | 7849
1400 K | 7875
1432 K | 7821
1435 K | 7819
1437 K | 7806
1441 K | 7827
1456 K | 7799
1460 K | 7828
1461 K | 7826
1489 K | 7770
1507 K | 7792
1510 K | 7755
1578 K | 7716
1624 K | 7673
1625 K | 7665
1679 K | 7628

[Pd] [palladium] + [Cu]
[2]
Conditions | mass density [kg/m3]
1374 K, x1 = 0.25 | 8847
1421 K, x1 = 0.25 | 8805
1469 K, x1 = 0.25 | 8762
1523 K, x1 = 0.25 | 8711
1523 K, x1 = 0.5 | 9468
1532 K, x1 = 0.5 | 9456
1562 K, x1 = 0.5 | 9412
1590 K, x1 = 0.25 | 8663
1617 K, x1 = 0.5 | 9371
1653 K, x1 = 0.5 | 9329
1654 K, x1 = 0.75 | 9987
1662 K, x1 = 0.5 | 9329
1678 K, x1 = 0.75 | 9964
1685 K, x1 = 0.25 | 8540
1708 K, x1 = 0.75 | 9936
1718 K, x1 = 0.5 | 9281
1753 K, x1 = 0.75 | 9886
1766 K, x1 = 0.5 | 9221
1784 K, x1 = 0.75 | 9853
1790 K, x1 = 1 | 10670
1795 K, x1 = 1 | 10672
1796 K, x1 = 1 | 10652
1802 K, x1 = 1 | 10686
1805 K, x1 = 0.5 | 9118
1809 K, x1 = 1 | 10670
1820 K, x1 = 1 | 10677
1822 K, x1 = 0.75 | 9805
1831 K, x1 = 1 | 10627
1843 K, x1 = 1 | 10654
1856 K, x1 = 1 | 10601
1857 K, x1 = 0.75 | 9728
1878 K, x1 = 1 | 10558
1889 K, x1 = 1 | 10592
1890 K, x1 = 1 | 10575
1917 K, x1 = 1 | 10529
1935 K, x1 = 1 | 10478
1951 K, x1 = 1 | 10465

[Cu] [copper] + [Pd]
[2], x2 = 0
Conditions | mass density [kg/m3]
1371 K | 7884
1385 K | 7849
1400 K | 7875
1432 K | 7821
1435 K | 7819
1437 K | 7806
1441 K | 7827
1456 K | 7799
1460 K | 7828
1461 K | 7826
1489 K | 7770
1507 K | 7792
1510 K | 7755
1578 K | 7716
1624 K | 7673
1625 K | 7665
1679 K | 7628

[Pd] [palladium] + [Ni]
[2]
Conditions | mass density
1474 K, x1 = 0.25 | 8842 kg/m3
1480 K, x1 = 0.5 | 9527 kg/m3
1488 K, x1 = 0.5 | 9518 kg/m3
1510 K, x1 = 0.25 | 8793 kg/m3
1513 K, x1 = 0.5 | 9495 kg/m3
1549 K, x1 = 0.5 | 9457 kg/m3 and 9456 kg/m3
1551 K, x1 = 0.25 | 8757 kg/m3
1563 K, x1 = 0.75 | 10175 kg/m3
1586 K, x1 = 0.5 | 9422 kg/m3
1589 K, x1 = 0.75 | 10157 kg/m3
1598 K, x1 = 0.75 | 10153 kg/m3
1611 K, x1 = 0.25 | 8707 kg/m3
1619 K, x1 = 0.75 | 10117 kg/m3
1630 K, x1 = 0.5 | 9386 kg/m3
1653 K, x1 = 0.75 | 10089 kg/m3
1668 K, x1 = 0.25 | 8661 kg/m3
1695 K, x1 = 0.5 | 9341 kg/m3
1701 K, x1 = 0.75 | 10023 kg/m3
1757 K, x1 = 0.25 | 8586 kg/m3
1770 K, x1 = 0.5 | 9275 kg/m3
1774 K, x1 = 0.75 | 9966 kg/m3
1790 K, x1 = 1 | 10670 kg/m3
1795 K, x1 = 1 | 10672 kg/m3
1796 K, x1 = 1 | 10652 kg/m3
1802 K, x1 = 1 | 10686 kg/m3
1809 K, x1 = 1 | 10670 kg/m3
1820 K, x1 = 1 | 10677 kg/m3
1831 K, x1 = 1 | 10627 kg/m3
1835 K, x1 = 0.75 | 9929 kg/m3
1843 K, x1 = 1 | 10654 kg/m3
1856 K, x1 = 1 | 10601 kg/m3
1859 K, x1 = 0.5 | 9186 kg/m3
1870 K, x1 = 0.25 | 8503 kg/m3
1878 K, x1 = 1 | 10558 kg/m3
1889 K, x1 = 1 | 10592 kg/m3
1890 K, x1 = 1 | 10575 kg/m3
1905 K, x1 = 0.75 | 9819 kg/m3
1917 K, x1 = 1 | 10529 kg/m3
1935 K, x1 = 1 | 10478 kg/m3
1951 K, x1 = 1 | 10465 kg/m3
